Data reported in patent US20190218188A1, “NOVEL 5-SUBSTITUTED IMIDAZOLE DERIVATIVES” (Bayer CropScience Aktiengesellschaft, priority 2016, published 2019).

Test: Log P by HPLC on reversed phase columns (EEC directive 79/831 Annex V.A8)
Format: physicochemical
Conditions: reversed phase HPLC column; method [a]: LC-UV, acidic range, 0.1% formic acid in water and acetonitrile as eluent (linear gradient 10% to 95% acetonitrile)
Procedure: Measurement of Log P values was performed according to EEC directive 79/831 Annex V.A8 by HPLC (High Performance Liquid Chromatography) on reversed phase columns with the following methods: • ^[a] Log P value is determined by measurement of LC-UV, in an acidic range, with 0.1% formic acid in water and acetonitrile as eluent (linear gradient from 10% acetonitrile to 95% acetonitrile). • ^[b] Log P value is determined by measurement of LC-UV, in a neutral range, with 0.001 molar ammonium acetate solution in water and acetonitrile as eluent (linear gradient from 10% acetonitrile to 95% acetonitrile). • ^[c] Log P value is determined by measurement of LC-UV, in an acidic range, with 0.1% phosphoric acid and acetonitrile as eluent (linear gradient from 10% acetonitrile to 95% acetonitrile). If more than one Log P value is available within the same method, all the values are given and separated by “+”. Calibration was done with straight-chain alkan2-ones (with 3 to 16 carbon atoms) with known Log P values (measurement of Log P values using retention times with linear interpolation between successive alkanones).

| chromatographic logP | Compound |
| --- | --- |
| 2.98 | N#Cc1cncn1CC(F)(Cc1cccc(F)c1F)C1(Cl)CC1 (centres unmarked) [Example I-01, 1-[2-(1-chlorocyclopropyl)-3-(2,3-difluorophenyl)-2-fluorpropyl]-1H-imidazole-5-carbonitrile] |
| 3.25 | N#Cc1cncn1CC(Cl)(Cc1cccc(F)c1F)C1(Cl)CC1 (centres unmarked) [Example I-02, 1-[2-chloro-2-(1-chlorocyclopropyl)-3-(2,3-difluorophenyl)propyl]-1H-imidazole-5-carbonitrile] |
